19 compounds from patent publication US7595313B2, “Nitric oxide donating diuretic compounds, compositions and methods of use” (NicOx, S.A., priority 2005, dated 2009) can be followed below.

In one series the test system is Male Wistar rats. The series can be described thus: Determination of the diuresis (urine volume over 6 hours after oral dosing). It counts as in vivo, rat. The method in brief:
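Male Wistar rats (180-200 g) in metabolic cages, fasted 18 h, water withdrawn 90 min before dosing. Compounds in 0.5% Methocel given p.o. at 30 or 3 mg/kg; urine volume collected over 6 h. Mean ±SEM, n=6 or 7.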

A further series relates to Dahl salt sensitive rats. Briefly: Blood pressure determination under in vivo conditions in the Dahl salt sensitive rat. The following applies: Dahl salt sensitive rats on high salt (8%) diet, gavage twice a day, 30 mg/kg HCT equivalent, telemetry, FIG. 1. The procedure:
The effect of subchronic administration of Example 1c and hydrochlorothiazide (HCT) on blood pressure was assessed in telemeterized male Dahl salt sensitive rats (5-6 weeks old; 125-150 g) fed a high salt (8%) diet for 4 weeks. Compounds were administered twice a day for 7 eight days via gavage at 30 mg/kg HCT equivalent in a 0.5% methylcellulose vehicle. Blood pressure was continuously monitored by telemetry and reported as a change in mean arterial blood pressure (MABP) over a 24 h period.

In the next series the test system is plasma renin. Briefly: Rat renin inhibition under in vivo conditions (chronic administration via mini-osmotic pumps). Particulars: for RENIN (Relative Units) DAY 0: Day 0 tail vein blood sample; for RENIN (Relative Units) DAY 0 / RENIN (Relative Units) Day 29: male Wistar rats, N=8; for RENIN (Relative Units) Day 29: terminal plasma day 29 after 28 days s.c. mini-pump, 10 mg/kg/day molar equivalent doses. As for the experimental part:
(§1) The effect of chronic administration of Example 51 and hydrochlorothiazide (HCT) on plasma aldosterone and renin levels was tested in male Wistar rats. Compounds were administered via mini-osmotic pumps implanted subcutaneously in the scapular area of the rats using asceptic techniques. Molar equivalent doses of HCT and Example 51 (10 mg/kg/day) in 50% DMSO/PEG300 were delivered for 28 days via Alzet mini-pumps and compared to vehicle treated animals. A 250 μl blood sample was obtained from tail vein cannulae for analysis of aldosterone and plasma renin levels (Day 0). Terminal plasma was collected on day 29 for analysis of aldosterone and plasma renin levels. Plasma renin and aldosterone were measured utilizing commercially available kits (Cayman Chemical; Ann Arbor, Mich. and Alpha Diagnostics; San Antonio, Tex., respectively).

In a further series the test system is plasma aldosterone. The series can be described thus: Rat aldosterone inhibition under in vivo conditions (chronic administration via mini-osmotic pumps). Particulars: for ALDOSTERONE (pg/ml) DAY 0: Day 0 tail vein blood sample; for ALDOSTERONE (pg/ml) DAY 0 / ALDOSTERONE (pg/ml) Day 29: male Wistar rats, N=8; for ALDOSTERONE (pg/ml) Day 29: terminal plasma day 29 after 28 days s.c. mini-pump, 10 mg/kg/day molar equivalent doses. As for the experimental part:
as §1

Series [1] deals with isolated rat aorta precontracted with phenylephrine. The series can be described thus: In vitro relaxant effect in rat aorta. As for the experimental part: The ability of Example 46b to relax isolated rat aorta precontracted with phenylephrine (1 μM) was studied. Example 46b was an efficacious relaxant agent in the rat aorta with an EC50 value of ˜7 μM. The vasorelaxant response elicited by Example 46b was abolished in the presence of ODQ, a potent and selective inhibitor of nitric oxide (NO)-sensitive guanylyl cyclase.

[2] abbreviates: p.o. 3 mg/kg in 0.5% Methocel, male Wistar rats, 6 hours, mean ± SEM, n=6 or 7.
[3] abbreviates: p.o. 30 mg/kg in 0.5% Methocel, male Wistar rats, 6 hours, mean ± SEM, n=6 or 7.
Setting [4] is: day 29, 10 mg/kg/day for 28 days, result in words.

Marks after values point to notes of the source that are not given here.

For `NS(=O)(=O)c1cc2c(cc1Cl)NC(CCCCCO[N+](=O)[O-])NS2(=O)=O` (centres unmarked) [Example 1c, 2H-1,2,4-Benzothiadiazine-7-sulfonamide, 6-chloro-3,4-dihydro-3-[5-(nitrooxy)pentyl]-, 1,1-dioxide], the melting point was in the range of 158 to 161 °C. Besides, the “Urine collected in 6 hours (mL) (3 mg/kg)” value (from here on “Urine collected … (3 mg/kg)”) in the series on Male Wistar rats (setting [2]) is given as 6.6 ± 0.4 mL. In addition, the “Urine collected in 6 hours (mL) (30 mg/kg)” value (shortened to “Urine collected … (30 mg/kg)”) in the series with Male Wistar rats (setting [3]) was 7.6 ± 0.5 mL. The “reductions in blood pressure (mean arterial blood pressure) during the treatment period” value in the series with Dahl salt sensitive rats is on record as “approximately 5 mm Hg”.

With `NS(=O)(=O)c1cc2c(cc1Cl)NCNS2(=O)=O` [HCT, hydrochlorothiazide, reference compound], in the series with plasma renin, the “RENIN (Relative Units) DAY 0” value is given as 5.0 ± 0.6 Relative Units and the “RENIN (Relative Units) Day 29” value stood at 24.6 ± 1.0 Relative Units. Besides, in the series with plasma aldosterone, the “ALDOSTERONE (pg/ml) DAY 0” value stood at 411.5 ± 41.8 pg/mL and the “ALDOSTERONE (pg/ml) Day 29” value was 2081.0 ± 232.1 pg/mL.

Consider `NS(=O)(=O)c1cc2c(cc1Cl)NCN(C/C=C/CO[N+](=O)[O-])S2(=O)=O` [Example 67b, 2H-1,2,4-Benzothiadiazine-7-sulfonamide, 6-chloro-3,4-dihydro-2-[(2E)-4-(nitrooxy)-2-butenyl]-, 1,1-dioxide], for which the melting point was 160 to 162 °C (dec.). In addition, in the series with Male Wistar rats (setting [2]), the “Urine collected … (3 mg/kg)” value was found to be 6.7 ± 0.6 mL.

`CC(CO[N+](=O)[O-])(CO[N+](=O)[O-])C(=O)N1CCC2(CC1)Nc1cc(Cl)c(S(N)(=O)=O)cc1S(=O)(=O)N2` [Example 23, Spiro[2H-1,2,4-benzothiadiazine-3(4H), 4′-piperidine]-7-sulfonamide, 6-chloro-1′-[2-methyl-3-(nitrooxy)-2-[(nitrooxy)methyl]-1-oxopropyl]-, 1,1-dioxide] showed a melting point of 142 to 145 °C. Moreover, in the series with Male Wistar rats (rat, in vivo, po), the “Urine collected … (30 mg/kg)” value is 1.7 ± 0.6 mL.

With `NS(=O)(=O)c1cc2c(cc1Cl)NCN(CCCCCCO[N+](=O)[O-])S2(=O)=O` [Example 58b, 2H-1,2,4-Benzothiadiazine-7-sulfonamide, 6-chloro-3,4-dihydro-2-[6-(nitrooxy)hexyl]-, 1,1-dioxide], the melting point fell in the range of 158 to 160 °C. The “Urine collected … (3 mg/kg)” value in the series with Male Wistar rats (setting [2]) is reported as 6.3 ± 0.2 mL.

As to `NS(=O)(=O)c1cc2c(cc1Cl)NCN(CC(=O)N(CCCO[N+](=O)[O-])CCCO[N+](=O)[O-])S2(=O)=O` [Example 72b, 2H-1,2,4-Benzothiadiazine-2-acetamide, 7-(aminosulfonyl)-6-chloro-3,4-dihydro-N,N-bis[3-(nitrooxy)propyl]-, 1,1-dioxide], the melting point is 157 to 160 °C. Moreover, the “Urine collected … (3 mg/kg)” value with Male Wistar rats (rat, in vivo, po) is 1.8 ± 0.2 mL.

Regarding `CN(CC1Nc2cc(Cl)c(S(N)(=O)=O)cc2S(=O)(=O)N1)C(=O)c1cc(CO[N+](=O)[O-])cc(CO[N+](=O)[O-])c1` (centres unmarked) [Example 65d, (5-{[{[7-(Aminosulfonyl)-6-chloro-1,1-dioxido-3,4-dihydro-2H-1,2,4-benzothiadiazin-3-yl]methyl}(methyl)amino]carbonyl}-1,3-phenylene)bis(methylene)dinitrate], the melting point is 137 °C (dec.). Moreover, in the series with Male Wistar rats (rat, in vivo, po), the “Urine collected … (3 mg/kg)” value stood at 4.6 ± 0.3 mL.

On to `NS(=O)(=O)c1cc2c(cc1Cl)NCN(CCCCO)S2(=O)=O` [Example 41, 2H-1,2,4-Benzothiadiazine-7-sulfonamide, 6-chloro-3,4-dihydro-2-(4-hydroxybutyl)-, 1,1-dioxide], for which the melting point was 96 to 99 °C. Further, the “Urine collected … (3 mg/kg)” value in the series on Male Wistar rats (setting [2]) came to 5.5 ± 0.6 mL.

Turning to `NS(=O)(=O)c1cc2c(cc1Cl)NCN(Cc1cccc(CO[N+](=O)[O-])c1)S2(=O)=O` [Example 33, 2H-1,2,4-Benzothiadiazine-7-sulfonamide, 6-chloro-3,4-dihydro-2-[[3-[(nitrooxy)methyl]phenyl]methyl]-, 1,1-dioxide], the melting point was 136 to 139 °C (dec.). Moreover, in the series with Male Wistar rats (setting [2]), the “Urine collected … (3 mg/kg)” value is recorded as 3.0 ± 0.4 mL.

As to `NS(=O)(=O)c1cc2c(cc1Cl)NC(CCCCCCO[N+](=O)[O-])NS2(=O)=O` (centres unmarked) [Example 47c, 2H-1,2,4-Benzothiadiazine-7-sulfonamide, 6-chloro-3,4-dihydro-3-[6-(nitrooxy)hexyl]-, 1,1-dioxide], the melting point stood at 161 °C. In addition, the “Urine collected … (3 mg/kg)” value in the series with Male Wistar rats (setting [2]) is 8.3 ± 0.6 mL.

`NS(=O)(=O)c1cc2c(cc1Cl)NC(c1cc(CO[N+](=O)[O-])cc(CO[N+](=O)[O-])c1)NS2(=O)=O` (centres unmarked) [Example 50c, 2H-1,2,4-Benzothiadiazine-7-sulfonamide, 3-[3,5-bis[(nitrooxy)methyl]phenyl]-6-chloro-3,4-dihydro-, 1,1-dioxide] displayed a melting point of 121 to 124 °C. In the series on Male Wistar rats (rat, in vivo, po), the “Urine collected … (3 mg/kg)” value amounted to 3.3 ± 0.6 mL.

Turning to `NS(=O)(=O)c1cc2c(cc1Cl)NCN(CC[C@@H](CO[N+](=O)[O-])O[N+](=O)[O-])S2(=O)=O` [Example 48b, 2H-1,2,4-Benzothiadiazine-7-sulfonamide, 2-[(3S)-3,4-bis(nitrooxy)butyl]-6-chloro-3,4-dihydro-, 1,1-dioxide], the melting point was in the range of 162 to 163 °C. Besides, the “Urine collected … (3 mg/kg)” value in the series on Male Wistar rats (rat, in vivo, po) is 4.8 ± 0.8 mL.

`NS(=O)(=O)c1cc2c(cc1Cl)NCN(CCCO)S2(=O)=O` [Example 59, 2H-1,2,4-Benzothiadiazine-7-sulfonamide, 6-chloro-3,4-dihydro-2-(3-hydroxypropyl)-, 1,1-dioxide] yielded a melting point of 160 °C. Moreover, the “Urine collected … (3 mg/kg)” value in the series on Male Wistar rats (setting [2]) is on record as 6.7 ± 0.6 mL.

Take `NS(=O)(=O)c1cc2c(cc1Cl)NCN(CCO[N+](=O)[O-])S2(=O)=O` [Example 51, 2H-1,2,4-Benzothiadiazine-7-sulfonamide, 6-chloro-3,4-dihydro-2-[2-(nitrooxy)ethyl]-, 1,1-dioxide]: the melting point is 161 to 163 °C (dec.). For the same compound, the “Urine collected … (3 mg/kg)” value in the series with Male Wistar rats (setting [2]) was 8.0 ± 1.1 mL. In addition, in the series with plasma renin, the “RENIN (Relative Units) DAY 0” value is recorded as 6.1 ± 0.3 Relative Units and the “RENIN (Relative Units) Day 29” value is 9.5 ± 0.5^a,b Relative Units. In addition, the “plasma renin measured on day 29 as compared to vehicle or HCT treated rats” value in the series on plasma renin (setting [4]) was “significantly lowered”. Further, in the series with plasma aldosterone, the “ALDOSTERONE (pg/ml) DAY 0” value is 540.8 ± 38.9 pg/mL and the “ALDOSTERONE (pg/ml) Day 29” value is reported as 1326.6 ± 118.7^c pg/ml. For the same compound, the “plasma aldosterone measured on day 29 as compared to vehicle or HCT treated rats” value in the series on plasma aldosterone (setting [4]) is “significantly lowered”.

For `NS(=O)(=O)c1cc2c(cc1Cl)NC(CCCCO)NS2(=O)=O` (centres unmarked) [Example 26, 2H-1,2,4-Benzothiadiazine-7-sulfonamide, 6-chloro-3,4-dihydro-3-(4-hydroxybutyl)-, 1,1-dioxide], the melting point lay in the range of 202 to 211 °C. In addition, the “Urine collected … (30 mg/kg)” value in the series with Male Wistar rats (setting [3]) is 6.0 ± 0.4 mL.

Take `NS(=O)(=O)c1cc2c(cc1Cl)N([N+](=O)[O-])CN(CCO[N+](=O)[O-])S2(=O)=O` [Example 52, 2H-1,2,4-Benzothiadiazine-7-sulfonamide, 6-chloro-3,4-dihydro-4-nitro-2-[2-(nitrooxy)ethyl]-, 1,1-dioxide]: the melting point is 144 °C (dec.). In addition, the “Urine collected … (3 mg/kg)” value in the series on Male Wistar rats (rat, in vivo, po) is listed as 5.7 ± 0.8 mL.

As for `CC(CO[N+](=O)[O-])(CO[N+](=O)[O-])C(=O)N1CCC2(CC1)Nc1cc(C(F)(F)F)c(S(N)(=O)=O)cc1S(=O)(=O)N2` [Example 16c, Spiro[2H-1,2,4-benzothiadiazine-3(4H), 4′-piperidine]-7-sulfonamide, 1′-[2-methyl-3-(nitrooxy)-2-[(nitrooxy)methyl]-1-oxopropyl]-6-(trifluoromethyl)-, 1,1-dioxide], the melting point was > 140 °C (dec.). Also, the “Urine collected … (30 mg/kg)” value in the series with Male Wistar rats (rat, in vivo, po) was found to be 4.3 ± 0.3 mL.

The compound `NS(=O)(=O)c1cc2c(cc1Cl)NCN(CCCCCO[N+](=O)[O-])S2(=O)=O` [Example 46b, 2H-1,2,4-Benzothiadiazine-7-sulfonamide, 6-chloro-3,4-dihydro-2-[5-(nitrooxy)pentyl]-, 1,1-dioxide] showed a melting point of 120 to 123 °C. Besides, the “vasorelaxant response in the presence of ODQ” value in series [1] (ODQ, inhibitor of NO-sensitive guanylyl cyclase, rat aorta precontracted with phenylephrine (1 μM)) is “abolished”. The EC50 in series [1] (Rattus norvegicus, aortic rings precontracted with phenylephrine (1 μM), relaxation as % of maximum by papaverine) was around 7 µM. In the series on Male Wistar rats (setting [2]), the “Urine collected … (3 mg/kg)” value turned out to be 7.3 ± 0.7 mL.

In turn, `NS(=O)(=O)c1cc2c(cc1C(F)(F)F)NC(CCCCCO[N+](=O)[O-])NS2(=O)=O` (centres unmarked) [Example 2, 2H-1,2,4-Benzothiadiazine-7-sulfonamide, 3,4-dihydro-3-[5-(nitrooxy)pentyl]-6-(trifluoromethyl)-, 1,1-dioxide] had a melting point of 171 to 189 °C. Moreover, the “Urine collected … (30 mg/kg)” value with Male Wistar rats (setting [3]) came to 5.7 ± 0.7 mL.
